These are literature values, as cited in patent US20090163599A1, “Mif adsorbant” (priority 2004, published 2009).

This data set concerns the target T1, dopachrome tautomerase activity of MIF (Homo sapiens, UniProt P14174).
T1 sequence (P14174 2-115 limits assumed): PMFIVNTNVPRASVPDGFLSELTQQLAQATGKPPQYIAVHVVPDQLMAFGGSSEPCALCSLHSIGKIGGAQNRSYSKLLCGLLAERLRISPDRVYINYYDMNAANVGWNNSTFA
As to conditions: known from Swope et al, J Biol Chem 273: 14877-14884, 1998.

As to `CCCCCCSC[C@H](NC(=O)CC[C@H](N)C(=O)O)C(=O)NCC(=O)O` [S-hexylglutathione], the “inhibiting effect on the dopachrome tautomerase activity of MIF” value is on record as “strong inhibiting effect”.

As to `CCCCCCS` [hexane thiol], the “inhibiting effect on the dopachrome tautomerase activity of MIF” value is given as “strong inhibiting effect”.
